Data reported in the NIST ThermoML archive (doi:10.1016/j.jct.2018.02.016).
± gives the expanded uncertainty stated by the source.

Details: Gas chromatography

Row | Compound | vapor or sublimation pressure (298.15 K, Metastable liquid) [kPa] | vapor or sublimation pressure (310 K, Metastable liquid) [kPa] | vapor or sublimation pressure (320 K, Metastable liquid) [kPa] | vapor or sublimation pressure (330 K, Metastable liquid) [kPa] | vapor or sublimation pressure (340 K, Metastable liquid) [kPa] | vapor or sublimation pressure (350 K, Metastable liquid) [kPa] | vapor or sublimation pressure (360 K, Metastable liquid) [kPa] | vapor or sublimation pressure (370 K, Metastable liquid) [kPa] | vapor or sublimation pressure (380 K, Metastable liquid) [kPa] | vapor or sublimation pressure (390 K, Metastable liquid) [kPa] | vapor or sublimation pressure (400 K, Metastable liquid) [kPa] | vapor or sublimation pressure (410 K, Metastable liquid) [kPa] | vapor or sublimation pressure (420 K, Metastable liquid) [kPa] | vapor or sublimation pressure (430 K, Metastable liquid) [kPa] | vapor or sublimation pressure (440 K, Metastable liquid) [kPa] | further results
1 | CC1=CC[C@@]23C[C@@H]1C(C)(C)[C@@H]2CC[C@H]3C [alpha-cedrene] | 0.0031 | 0.0081 | 0.017 | 0.035 ± 0.017 | 0.067 ± 0.03 | 0.12 ± 0.051 | 0.22 ± 0.082 | 0.37 ± 0.12 | 0.61 ± 0.17 | 0.99 ± 0.23 | 1.5 ± 0.3 | 2.4 ± 0.38 | 3.5 ± 0.49 | 5.1 ± 0.65 | 7.3 ± 0.89 | vapor or sublimation pressure (533.2 K, Metastable liquid): 101.3 ± 10 kPa
2 | C1C2CC3C4CC5CC(C14)C(C2)C3C5 [pentacyclo[7.3.1.1(4,12).0(2,7).0(6,11)]tetradecane] | 0.0016 | 0.0043 | 0.0091 | 0.018 | 0.036 | 0.066 | 0.12 | 0.2 | 0.34 | 0.55 | 0.87 ± 0.42 | 1.3 ± 0.61 | 2 ± 0.83 | 3 ± 1.1 | 4.3 ± 1.5 | vapor or sublimation pressure (516 K, Metastable liquid): 44.3 ± 4.4 kPa; vapor or sublimation pressure (526 K, Metastable liquid): 56 ± 5.6 kPa; vapor or sublimation pressure (536 K, Metastable liquid): 71 ± 7.1 kPa; vapor or sublimation pressure (546 K, Metastable liquid): 89 ± 8.9 kPa
3 | C=C1CC[C@@]23C[C@@H]1C(C)(C)[C@@H]2CC[C@H]3C [beta-cedrene] | 0.0031 | 0.0081 | 0.017 | 0.035 ± 0.017 | 0.067 ± 0.03 | 0.12 ± 0.051 | 0.21 ± 0.081 | 0.37 ± 0.12 | 0.61 ± 0.17 | 0.99 ± 0.23 | 1.5 ± 0.3 | 2.3 ± 0.38 | 3.5 ± 0.49 | 5.1 ± 0.65 | 7.3 ± 0.89 | vapor or sublimation pressure (533.3 K, Metastable liquid): 101.3 ± 10 kPa
4 | C1C2CC3CC1CC(C2)C3 [adamantane] | – | – | – | – | – | – | – | – | – | – | – | – | – | – | – | vapor or sublimation pressure (298.15 K, Liquid): 0.13 kPa; vapor or sublimation pressure (310 K, Liquid): 0.26 kPa; vapor or sublimation pressure (320 K, Liquid): 0.46 kPa; vapor or sublimation pressure (330 K, Liquid): 0.77 kPa; vapor or sublimation pressure (340 K, Liquid): 1.3 kPa; vapor or sublimation pressure (350 K, Liquid): 2 kPa; vapor or sublimation pressure (360 K, Liquid): 3.1 ± 1.4 kPa; vapor or sublimation pressure (370 K, Liquid): 4.6 ± 1.8 kPa; vapor or sublimation pressure (380 K, Liquid): 6.8 ± 2.3 kPa; vapor or sublimation pressure (390 K, Liquid): 9.8 ± 2.9 kPa; vapor or sublimation pressure (400 K, Liquid): 14 ± 3 kPa; vapor or sublimation pressure (410 K, Liquid): 19 ± 4 kPa; vapor or sublimation pressure (420 K, Liquid): 26 ± 5 kPa; vapor or sublimation pressure (430 K, Liquid): 35 ± 5 kPa; vapor or sublimation pressure (440 K, Liquid): 46 ± 6 kPa; vapor or sublimation pressure (545 K, Liquid): 460 ± 46 kPa; vapor or sublimation pressure (555 K, Liquid): 550 ± 55 kPa; vapor or sublimation pressure (565 K, Liquid): 650 ± 65 kPa; vapor or sublimation pressure (575 K, Liquid): 760 ± 76 kPa
